How the values were obtained:
Format in all cases: in vivo
[1] = system: Beet Armyworm (Spodoptera exigua, LAPHEG); assay: Bioassay on Beet Armyworm (BAW), 128-well diet tray assay; conditions: 168 h, 50 μg/cm^2 on artificial diet, second instar larvae, 25° C., five to seven days, average of eight wells, read-out: BAW % Control (or Mortality) rating
Procedure: (§1) Certain molecules disclosed in this document were tested against BAW and CL using procedures described in the following examples. In the reporting of the results, the “BAW & CL Rating Table” was used (See Table Section).
Bioassays on BAW were conducted using a 128-well diet tray assay. One to five second instar BAW larvae were placed in each well (3 mL) of the diet tray that had been previously filled with approximately 1.5 mL of artificial diet to which 50 μg/cm^2 of the test molecule (dissolved in 50 μL of 90:10 acetone-water mixture) had been applied (to each of eight wells) and then allowed to dry. Trays were covered with a clear self-adhesive cover, vented to allow gas exchange, and held at 25° C., 14:10 light-dark for five to seven days. Percent mortality was recorded for the larvae in each well; activity in the eight wells was then averaged. The results are indicated in the table entitled “Table ABC: Biological Results” (See Table Section).

[2] = system: Cabbage Looper (Trichoplusia ni, TRIPNI); assay: Bioassay on Cabbage Looper (CL), 128-well diet tray assay; conditions: 168 h, 50 μg/cm^2 on artificial diet, second instar larvae, 25° C., five to seven days, average of eight wells, read-out: CL % Control (or Mortality) rating
Procedure: as §1
Bioassays on CL were conducted using a 128-well diet tray assay. one to five second instar CL larvae were placed in each well (3 mL) of the diet tray that had been previously filled with 1 mL of artificial diet to which 50 μg/cm^2 of the test molecule (dissolved in 50 μL of 90:10 acetone-water mixture) had been applied (to each of eight wells) and then allowed to dry. Trays were covered with a clear self-adhesive cover, vented to allow gas exchange, and held at 25° C., 14:10 light-dark for five to seven days. Percent mortality was recorded for the larvae in each well; activity in the eight wells was then averaged. The results are indicated in the table entitled “Table ABC: Biological Results” (See Table Section).

[3] = system: Yellow Fever Mosquito (Aedes aegypti, AEDSAE); conditions: about 1 day-old larvae, 96-well plate from 4000 ppm DMSO master, 3 days at room temperature
Procedure: Certain molecules disclosed in this document were tested against YFM using procedures described in the following paragraph. In the reporting of the results, the “GPA & YFM Rating Table” was used (See Table Section).
Master plates containing 400 μg of a molecule dissolved in 100 μL of dimethyl sulfoxide (DMSO) (equivalent to a 4000 ppm solution) are used. A master plate of assembled molecules contains 15 μL per well. To this plate, 135 μL of a 90:10 water/acetone mixture is added to each well. A robot is programmed to dispense 15 μL aspirations from the master plate into an empty 96-well shallow plate (“daughter” plate). There are 6 reps (“daughter” plates) created per master. The created “daughter” plates are then immediately infested with YFM larvae.
The day before plates are to be treated, mosquito eggs are placed in Millipore water containing liver powder to begin hatching (4 g. into 400 mL). After the “daughter” plates are created using the robot, they are infested with 220 μL of the liver powder/larval mosquito mixture (about 1 day-old larvae). After plates are infested with mosquito larvae, a non-evaporative lid is used to cover the plate to reduce drying. Plates are held at room temperature for 3 days prior to grading. After 3 days, each well is observed and scored based on mortality. The results are indicated in the table entitled “Table ABC: Biological Results” (See Table Section).

Row | SMILES | mortality at 50 µg/cm2 [1] [%] | mortality at 50 µg/cm2 [2] [%] | YFM % Control (or Mortality) rating [3]
1 | O=C(NC1COC1)c1cc(NC(=O)[C@H]2[C@H](c3cc(Cl)cc(Cl)c3)C2(Cl)Cl)ccc1Cl (relative stereo) [Molecule F53, trans-2-Chloro-5-(2,2-dichloro-3-(3,5-dichlorophenyl)cyclopropanecarboxamido)-N-(oxetan-3-yl)benzamide] | 50 to 100 | 50 to 100 | A (80-100)
2 | C=Cc1ccc([C@H]2[C@H](C(=O)Nc3ccc(Cl)c(C(=O)NC4(C#N)CC4)c3)C2(Cl)Cl)cc1Cl (relative stereo) [Molecule F67, trans-2-chloro-N-(1-cyanocyclopropyl)-5-(2,2-dichloro-3-(3-chloro-4-vinylphenyl)cyclopropane-1-carboxamido)benzamide] | 50 to 100 | 50 to 100 | A (80-100)
3 | N#CC1(NC(=O)c2cc(NC(=O)[C@@H]3[C@@H](c4cc(Cl)cc(Cl)c4)C3(Cl)Cl)ccc2Cl)CC1 [Molecule F76, 2-Chloro-N-(1-cyanocyclopropyl)-5-((1S,3S)-2,2-dichloro-3-(3,5-dichloro-phenyl)cyclopropanecarboxamido)benzamide] | 50 to 100 | 50 to 100 | A (80-100)
4 | O=C(NC1CC(F)(F)C1)c1cc(NC(=O)[C@H]2[C@H](c3cc(F)cc(Cl)c3)C2(Cl)Cl)ccc1Cl (relative stereo) [PF5, trans-2-Chloro-5-(2,2-dichloro-3-(3-chloro-5-fluorophenyl)cyclopropane-1-carboxamido)-N-(3,3-difluorocyclobutyl)benzamide] | 50 to 100 | 50 to 100 | B (More than 0-Less than 80)
5 | N#CC1(NC(=O)c2cc(NC(=O)[C@H]3[C@H](c4ccc(F)c(C(F)F)c4)C3(Cl)Cl)ccc2Cl)CC1 (relative stereo) [Molecule F88, trans-2-Chloro-N-(1-cyanocyclopropyl)-5-(2,2-dichloro-3-(3-(difluoromethyl)-4-fluorophenyl)cyclopropane-1-carboxamido)benzamide] | 50 to 100 | 50 to 100 | A (80-100)
6 | O=C(NC1CCNC1=O)c1cc(NC(=O)C2C(c3cc(Cl)cc(Cl)c3)C2(Cl)Cl)ccc1Cl (stereo not drawn) [PF29, trans-2-Chloro-5-(2,2-dichloro-3-(3,5-dichlorophenyl)cyclopropane-1-carbox-amido)-N-(2-oxopyrrolidin-3-yl)benzamide] | 50 to 100 | 50 to 100 | B (More than 0-Less than 80)
7 | O=C(NC1CCOC1=O)c1cc(NC(=O)C2C(c3cc(Cl)cc(Cl)c3)C2(Cl)Cl)ccc1Cl (stereo not drawn) [PF37, trans-2-Chloro-5-(2,2-dichloro-3-(3,5-dichlorophenyl)cyclopropane-1-carbox-amido)-N-(2-oxotetrahydrofuran-3-yl)benzamide] | 50 to 100 | 50 to 100 | A (80-100)
8 | O=C(NC1CCC(F)(F)CC1)c1cc(NC(=O)[C@H]2[C@H](c3cc(Cl)c(Cl)c(Cl)c3)C2(Cl)Cl)ccc1Cl (relative stereo) [Molecule F45, trans-2-Chloro-5-(2,2-dichloro-3-(3,4,5-trichlorophenyl)cyclopropanecarboxamido)-N-(4,4-difluorocyclohexyl)benzamide] | 50 to 100 | 50 to 100 | A (80-100)
9 | O=C(NC1(C(=O)NCC(F)(F)F)CC1)c1cc(NC(=O)C2C(c3cc(Cl)cc(Cl)c3)C2(Cl)Cl)ccc1Cl (stereo not drawn) [PF42, trans-2-Chloro-5-(2,2-dichloro-3-(3,5-dichlorophenyl)cyclopropane-1-carbox-amido)-N-(1-((2,2,2-trifluoroethyl)carbamoyl)cyclopropyl)benzamide] | 50 to 100 | 50 to 100 | A (80-100)

From patent US9795139B2, “Molecules having pesticidal utility, and intermediates, compositions, and processes, related thereto” (priority 2015, dated 2017)
